# Measured values reported in patent publication US20170190671A1, “BIS(ARYL)CATECHOL DERIVATIVES AS HERBICIDES” (E I DU PONT DE NEMOURS AND COMPANY, priority 2014, published 2017).
# Assays:
# Assay in all cases: Test C preemergence
# Assay type in all cases: in vivo
# [1] = tested on: Italian ryegrass (Lolium multiflorum); conditions: Lolium multiflorum, pre-emergence, 336 h, scale 0 to 100, read-out: Plant response rating, Ryegrass, Italian
# Summary of the method: (§1)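 Seeds in loam-sand soil were treated preemergence, and plants at the 1- to 4-leaf stage (2-18 cm) in peat-based medium were sprayed postemergence, with test chemicals in a non-phytotoxic solvent containing surfactant. After 13-15 days in a greenhouse, response was rated visually against controls from 0 (no effect) to 100 (complete control).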
# [2] = tested on: blackgrass (Alopecurus myosuroides); conditions: Alopecurus myosuroides, pre-emergence, 336 h, scale 0 to 100, read-out: Plant response rating, Blackgrass
# Summary of the method: as §1
# corn (Zea mays) = conditions: Zea mays, pre-emergence, 336 h, scale 0 to 100
# Summary of the method: as §1
# [3] = tested on: galium (catchweed bedstraw, Galium aparine); conditions: Galium, pre-emergence, 336 h, scale 0 to 100, read-out: Plant response rating, Galium
# Summary of the method: as §1
# [4] = tested on: giant foxtail (Setaria faberii); conditions: Setaria faberi, pre-emergence, 336 h, scale 0 to 100, read-out: Plant response rating, Foxtail, Giant
# Summary of the method: as §1
# [5] = tested on: large (Lg) crabgrass (Digitaria sanguinalis); conditions: Digitaria sanguinalis, pre-emergence, 336 h, scale 0 to 100, read-out: Plant response rating, Crabgrass, Large
# Summary of the method: as §1
# [6] = tested on: morningglory (Ipomoea coccinea); conditions: Ipomoea, pre-emergence, 336 h, scale 0 to 100, read-out: Plant response rating, Morningglory
# Summary of the method: as §1
# [7] = tested on: oilseed rape (Brassica napus); conditions: Brassica napus, pre-emergence, scale 0 to 100, read-out: Plant response rating, Oilseed Rape
# Summary of the method: as §1
# [8] = tested on: pigweed (Amaranthus retroflexus); conditions: Amaranthus retroflexus, pre-emergence, 336 h, scale 0 to 100, read-out: Plant response rating, Pigweed
# Summary of the method: as §1
# [9] = tested on: ragweed (common ragweed, Ambrosia elatior); conditions: Ambrosia artemisiifolia, pre-emergence, 336 h, scale 0 to 100, read-out: Plant response rating, Ragweed
# Summary of the method: as §1
# soybean (Glycine max) = conditions: Glycine max, pre-emergence, scale 0 to 100, read-out: Plant response rating, Soybean
# Summary of the method: as §1
# [10] = tested on: velvetleaf (Abutilon theophrasti); conditions: Abutilon theophrasti, pre-emergence, scale 0 to 100, read-out: Plant response rating, Velvetleaf
# Summary of the method: as §1
# [11] = tested on: waterhemp (common waterhemp, Amaranthus rudis); conditions: Amaranthus tuberculatus, pre-emergence, scale 0 to 100, read-out: Plant response rating, Waterhemp
# Summary of the method: as §1
# [12] = tested on: winter wheat (Triticum aestivum); conditions: Triticum aestivum, pre-emergence, 336 h, scale 0 to 100, read-out: Plant response rating, Wheat
# Summary of the method: as §1
# [13] = tested on: yellow nutsedge (Cyperus esculentus); conditions: Cyperus, pre-emergence, 336 h, scale 0 to 100, read-out: Plant response rating, Nutsedge, Yellow
# Summary of the method: as §1
structure (smiles),measurement,setting,value
N#Cc1cccc(Oc2ncc(Cl)cn2)c1Oc1ccc(Br)cn1 [Compound 15],pest or weed control at 31 g/ha,"[1]; 31 g ai/ha, preemergence",5%
same,pest or weed control at 62 g/ha,"[1]; 62 g ai/ha, preemergence",40%
same,pest or weed control at 125 g/ha,"[1]; 125 g ai/ha, preemergence",60%
same,pest or weed control at 16 g/ha,"[1]; Preemergence, 16 g ai/ha",0%
same,pest or weed control at 31 g/ha,"[2]; 31 g ai/ha, preemergence",0%
same,pest or weed control at 62 g/ha,"[2]; 62 g ai/ha, preemergence",10%
same,pest or weed control at 125 g/ha,"[2]; 125 g ai/ha, preemergence",80%
same,pest or weed control at 16 g/ha,"[2]; Preemergence, 16 g ai/ha",0%
same,"Corn plant response rating (crop injury, 0 = no effect, 100 = complete kill) at 31 g/ha","corn (Zea mays); 31 g ai/ha, preemergence",0%
same,"Corn plant response rating (crop injury, 0 = no effect, 100 = complete kill) at 62 g/ha","corn (Zea mays); 62 g ai/ha, preemergence",5%
same,"Corn plant response rating (crop injury, 0 = no effect, 100 = complete kill) at 125 g/ha","corn (Zea mays); 125 g ai/ha, preemergence",40%
same,"Corn plant response rating (crop injury, 0 = no effect, 100 = complete kill) at 16 g/ha","corn (Zea mays); Preemergence, 16 g ai/ha",0%
same,pest or weed control at 31 g/ha,"[3]; 31 g ai/ha, preemergence",100%
same,pest or weed control at 62 g/ha,"[3]; 62 g ai/ha, preemergence",95%
same,pest or weed control at 125 g/ha,"[3]; 125 g ai/ha, preemergence",100%
same,pest or weed control at 16 g/ha,"[3]; Preemergence, 16 g ai/ha",100%
same,pest or weed control at 31 g/ha,"[4]; 31 g ai/ha, preemergence",80%
same,pest or weed control at 62 g/ha,"[4]; 62 g ai/ha, preemergence",100%
same,pest or weed control at 125 g/ha,"[4]; 125 g ai/ha, preemergence",100%
same,pest or weed control at 16 g/ha,"[4]; Preemergence, 16 g ai/ha",70%
same,pest or weed control at 31 g/ha,"[5]; 31 g ai/ha, preemergence",100%
same,pest or weed control at 62 g/ha,"[5]; 62 g ai/ha, preemergence",100%
same,pest or weed control at 125 g/ha,"[5]; 125 g ai/ha, preemergence",100%
same,pest or weed control at 16 g/ha,"[5]; Preemergence, 16 g ai/ha",75%
same,pest or weed control at 31 g/ha,"[6]; 31 g ai/ha, preemergence",5%
same,pest or weed control at 62 g/ha,"[6]; 62 g ai/ha, preemergence",40%
same,pest or weed control at 125 g/ha,"[6]; 125 g ai/ha, preemergence",70%
same,pest or weed control at 16 g/ha,"[6]; Preemergence, 16 g ai/ha",5%
same,plant injury at 31 g/ha,"[7]; 31 g ai/ha, preemergence",98%
same,plant injury at 62 g/ha,"[7]; 62 g ai/ha, preemergence",100%
same,plant injury at 125 g/ha,"[7]; 125 g ai/ha, preemergence",100%
same,plant injury at 16 g/ha,"[7]; Preemergence, 16 g ai/ha",25%
same,pest or weed control at 31 g/ha,"[8]; 31 g ai/ha, preemergence",100%
same,pest or weed control at 62 g/ha,"[8]; 62 g ai/ha, preemergence",100%
same,pest or weed control at 125 g/ha,"[8]; 125 g ai/ha, preemergence",100%
same,pest or weed control at 16 g/ha,"[8]; Preemergence, 16 g ai/ha",80%
same,pest or weed control at 31 g/ha,"[9]; 31 g ai/ha, preemergence",30%
same,pest or weed control at 62 g/ha,"[9]; 62 g ai/ha, preemergence",50%
same,pest or weed control at 125 g/ha,"[9]; 125 g ai/ha, preemergence",40%
same,pest or weed control at 16 g/ha,"[9]; Preemergence, 16 g ai/ha",0%
same,plant injury at 31 g/ha,"soybean (Glycine max); 31 g ai/ha, preemergence",30%
same,plant injury at 62 g/ha,"soybean (Glycine max); 62 g ai/ha, preemergence",40%
same,plant injury at 125 g/ha,"soybean (Glycine max); 125 g ai/ha, preemergence",60%
same,plant injury at 16 g/ha,"soybean (Glycine max); Preemergence, 16 g ai/ha",20%
same,pest or weed control at 31 g/ha,"[10]; 31 g ai/ha, preemergence",75%
same,pest or weed control at 62 g/ha,"[10]; 62 g ai/ha, preemergence",90%
same,pest or weed control at 125 g/ha,"[10]; 125 g ai/ha, preemergence",100%
same,pest or weed control at 16 g/ha,"[10]; Preemergence, 16 g ai/ha",60%
same,pest or weed control at 31 g/ha,"[11]; 31 g ai/ha, preemergence",100%
same,pest or weed control at 62 g/ha,"[11]; 62 g ai/ha, preemergence",100%
same,pest or weed control at 125 g/ha,"[11]; 125 g ai/ha, preemergence",100%
same,pest or weed control at 16 g/ha,"[11]; Preemergence, 16 g ai/ha",100%
same,plant injury at 31 g/ha,"[12]; 31 g ai/ha, preemergence",0%
same,plant injury at 62 g/ha,"[12]; 62 g ai/ha, preemergence",5%
same,plant injury at 125 g/ha,"[12]; 125 g ai/ha, preemergence",40%
same,plant injury at 16 g/ha,"[12]; Preemergence, 16 g ai/ha",0%
same,pest or weed control at 31 g/ha,"[13]; 31 g ai/ha, preemergence",0%
same,pest or weed control at 62 g/ha,"[13]; 62 g ai/ha, preemergence",0%
same,pest or weed control at 125 g/ha,"[13]; 125 g ai/ha, preemergence",25%
same,pest or weed control at 16 g/ha,"[13]; Preemergence, 16 g ai/ha",0%
